Source: patent publication US20060009478A1, “Methods for the treatment of back pain” (priority 2003, published 2006)

System: patients with moderate to severe chronic low back pain
Assay: Short Opiate Withdrawal Scale (SOWS), low back pain study
Conditions: for SOWS change from baseline, MAX / SOWS change from baseline, MEAN(SD) / SOWS change from baseline, MEDIAN / SOWS change from baseline, MIN / SOWS score, MAX / SOWS score, MEAN(SD) / SOWS score, MEDIAN / SOWS score, MIN / SOWS change from baseline, MAXIMUM / SOWS change from baseline, MINIMUM / SOWS score, MAXIMUM / SOWS score, MINIMUM: ITT
[1] = all patients, change from baseline to day 1
[2] = all patients, change from baseline to day 2
[3] = all patients, change from baseline to day 3
[4] = all patients, change from baseline to day 4
[5] = all patients, last dose date (baseline)
[6] = all patients, opioid withdrawal monitoring day 1
[7] = all patients, opioid withdrawal monitoring day 2
[8] = all patients, opioid withdrawal monitoring day 3
[9] = all patients, opioid withdrawal monitoring day 4
[10] = patients with <4 weeks of dosing, change from baseline to day 1
[11] = patients with <4 weeks of dosing, change from baseline to day 2
[12] = patients with <4 weeks of dosing, change from baseline to day 3
[13] = patients with <4 weeks of dosing, change from baseline to day 4
[14] = patients with <4 weeks of dosing, last dose date (baseline)
[15] = patients with <4 weeks of dosing, opioid withdrawal monitoring day 1
[16] = patients with <4 weeks of dosing, opioid withdrawal monitoring day 2
[17] = patients with <4 weeks of dosing, opioid withdrawal monitoring day 3
[18] = patients with <4 weeks of dosing, opioid withdrawal monitoring day 4
[19] = patients with ≧4 weeks of dosing, change from baseline to day 1
[20] = patients with ≧4 weeks of dosing, change from baseline to day 2
[21] = patients with ≧4 weeks of dosing, change from baseline to day 3
[22] = patients with ≧4 weeks of dosing, change from baseline to day 4
[23] = patients with ≧4 weeks of dosing, last dose date (baseline)
[24] = patients with ≧4 weeks of dosing, opioid withdrawal monitoring day 1
[25] = patients with ≧4 weeks of dosing, opioid withdrawal monitoring day 2
[26] = patients with ≧4 weeks of dosing, opioid withdrawal monitoring day 3
[27] = patients with ≧4 weeks of dosing, opioid withdrawal monitoring day 4

COc1ccc2c3c1O[C@H]1C(=O)CC[C@@]4(O)[C@@H](C2)N(C)CC[C@]314 [OXY QID, oxycodone]
SOWS change from baseline, MAX [1]: 1.9
SOWS change from baseline, MEAN(SD) [1]: 0.3 (0.47)
SOWS change from baseline, MEDIAN [1]: 0.2
SOWS change from baseline, MIN [1]: −0.7
SOWS change from baseline, MAX [2]: 2.4
SOWS change from baseline, MEAN(SD) [2]: 0.3 (0.53)
SOWS change from baseline, MEDIAN [2]: 0.2
SOWS change from baseline, MIN [2]: −1.1
SOWS change from baseline, MAX [3]: 1.7
SOWS change from baseline, MEAN(SD) [3]: 0.2 (0.48)
SOWS change from baseline, MEDIAN [3]: 0.2
SOWS change from baseline, MIN [3]: −1.1
SOWS change from baseline, MAX [4]: 2.7
SOWS change from baseline, MEAN(SD) [4]: 0.2 (0.54)
SOWS change from baseline, MEDIAN [4]: 0.1
SOWS change from baseline, MIN [4]: −1.1
SOWS score, MAX [5]: 1.5
SOWS score, MEAN(SD) [5]: 0.3 (0.36)
SOWS score, MEDIAN [5]: 0.2
SOWS score, MIN [5]: 0.0
SOWS score, MAX [6]: 2.5
SOWS score, MEAN(SD) [6]: 0.5 (0.52)
SOWS score, MEDIAN [6]: 0.4
SOWS score, MIN [6]: 0.0
SOWS score, MAX [7]: 2.5
SOWS score, MEAN(SD) [7]: 0.5 (0.54)
SOWS score, MEDIAN [7]: 0.4
SOWS score, MIN [7]: 0.0
SOWS score, MAX [8]: 2.2
SOWS score, MEAN(SD) [8]: 0.5 (0.53)
SOWS score, MEDIAN [8]: 0.4
SOWS score, MIN [8]: 0.0
SOWS score, MAX [9]: 2.7
SOWS score, MEAN(SD) [9]: 0.4 (0.54)
SOWS score, MEDIAN [9]: 0.3
SOWS score, MIN [9]: 0.0
SOWS change from baseline, MAX [10]: 0.2
SOWS change from baseline, MEAN(SD) [10]: 0.0 (0.16)
SOWS change from baseline, MEDIAN [10]: 0.0
SOWS change from baseline, MIN [10]: −0.2
SOWS change from baseline, MAX [11]: 1.3
SOWS change from baseline, MEAN(SD) [11]: 0.2 (0.66)
SOWS change from baseline, MEDIAN [11]: 0.1
SOWS change from baseline, MIN [11]: −0.5
SOWS change from baseline, MAX [12]: 1.3
SOWS change from baseline, MEAN(SD) [12]: 0.2 (0.67)
SOWS change from baseline, MEDIAN [12]: 0.0
SOWS change from baseline, MIN [12]: −0.5
SOWS change from baseline, MAX [13]: 0.8
SOWS change from baseline, MEAN(SD) [13]: 0.2 (0.41)
SOWS change from baseline, MEDIAN [13]: 0.1
SOWS change from baseline, MIN [13]: −0.1
SOWS score, MAX [14]: 0.7
SOWS score, MEAN(SD) [14]: 0.3 (0.29)
SOWS score, MEDIAN [14]: 0.2
SOWS score, MIN [14]: 0.0
SOWS score, MAX [15]: 0.9
SOWS score, MEAN(SD) [15]: 0.2 (0.27)
SOWS score, MEDIAN [15]: 0.1
SOWS score, MIN [15]: 0.0
SOWS score, MAX [16]: 1.3
SOWS score, MEAN(SD) [16]: 0.2 (0.38)
SOWS score, MEDIAN [16]: 0.0
SOWS score, MIN [16]: 0.0
SOWS score, MAX [17]: 1.3
SOWS score, MEAN(SD) [17]: 0.2 (0.39)
SOWS score, MEDIAN [17]: 0.0
SOWS score, MIN [17]: 0.0
SOWS score, MAX [18]: 0.8
SOWS score, MEAN(SD) [18]: 0.1 (0.26)
SOWS score, MEDIAN [18]: 0.0
SOWS score, MIN [18]: 0.0
SOWS change from baseline, MAXIMUM [19]: 1.9
SOWS change from baseline, MEAN(SD) [19]: 0.3 (0.48)
SOWS change from baseline, MEDIAN [19]: 0.2
SOWS change from baseline, MINIMUM [19]: −0.7
SOWS change from baseline, MAXIMUM [20]: 2.4
SOWS change from baseline, MEAN(SD) [20]: 0.3 (0.52)
SOWS change from baseline, MEDIAN [20]: 0.2
SOWS change from baseline, MINIMUM [20]: −1.1
SOWS change from baseline, MAXIMUM [21]: 1.7
SOWS change from baseline, MEAN(SD) [21]: 0.3 (0.48)
SOWS change from baseline, MEDIAN [21]: 0.2
SOWS change from baseline, MINIMUM [21]: −1.1
SOWS change from baseline, MAXIMUM [22]: 2.7
SOWS change from baseline, MEAN(SD) [22]: 0.2 (0.55)
SOWS change from baseline, MEDIAN [22]: 0.1
SOWS change from baseline, MINIMUM [22]: −1.1
SOWS score, MAXIMUM [23]: 1.5
SOWS score, MEAN(SD) [23]: 0.3 (0.37)
SOWS score, MEDIAN [23]: 0.2
SOWS score, MINIMUM [23]: 0.0
SOWS score, MAXIMUM [24]: 2.5
SOWS score, MEAN(SD) [24]: 0.5 (0.53)
SOWS score, MEDIAN [24]: 0.4
SOWS score, MINIMUM [24]: 0.0
SOWS score, MAXIMUM [25]: 2.5
SOWS score, MEAN(SD) [25]: 0.6 (0.54)
SOWS score, MEDIAN [25]: 0.4
SOWS score, MINIMUM [25]: 0.0
SOWS score, MAXIMUM [26]: 2.2
SOWS score, MEAN(SD) [26]: 0.6 (0.53)
SOWS score, MEDIAN [26]: 0.4
SOWS score, MINIMUM [26]: 0.0
SOWS score, MAXIMUM [27]: 2.7
SOWS score, MEAN(SD) [27]: 0.5 (0.55)
SOWS score, MEDIAN [27]: 0.3
SOWS score, MINIMUM [27]: 0.0
Mean SOWS score in the first 24 hours following drug discontinuation (patients with ≧4 weeks of dosing, p<0.01): 2.6
